Experimental data from patent US9493466B2, “Treatment of cancer with TOR kinase inhibitors” (Signal Pharmaceuticals, LLC, priority 2011, dated 2016).

Tests used:
[1] = Storage stability of compound-spotted plates (repeat testing in A549); format: physicochemical; conditions: DMSO-spotted sealed 384-well plates at −20° C.
Method: Compound 1 was dissolved in dimethyl sulfoxide (DMSO) to prepare a 10 mM stock solution. A serial titration was performed to produce a working concentration range of […] to 10 mM. Aliquots to produce final concentrations of 1.5 nM to 10 μM were spotted via an acoustic dispenser (EDC ATS-100) into an empty 384-well plate. Compound 1 was spotted in a 10-point serial dilution fashion (3-fold dilution) in duplicate within the plate. The DMSO concentration was kept constant for a final assay concentration of 0.1% DMSO. Plates were replicated for use with different cell lines and testing periods. […] When ready for testing, plates were removed from the freezer, thawed, and unsealed just prior to the addition of the test cells. […] At the time when compound was added (t0), initial cell number was assessed via a viability assay (Cell Titer-Glo) by quantifying the level of luminescence generated by ATP present in viable cells. After 96 hours, cell viability of compound-treated cells was assessed via Cell Titer-Glo and luminescence measurement. […] The compound response against this control cell line was monitored closely to enable comparison of the data generated through the assay period. […] Results were then expressed as a GI50 value. […] In addition, the IC50 value of Compound 1 for each cell line was calculated.

[2] = system: G144-Luc cells; experiment: G144 cancer stem cell derived intracranial glioblastoma model; format: in vivo, Nude mice; conditions: 10 mg/kg and 20 mg/kg QD oral, up to 6 weeks; FIG. 15
Method: G144 Cancer Stem Cell Derived Intracranial Glioblastoma Model (Compound 1). An intracranial glioblastoma study was conducted with G144 glioblastoma cells transfected with luciferase (G144-Luc). Nude mice were inoculated intracranially with G144-Luc cells into the brain. Following inoculation of animals, the tumors were allowed to grow for 5 weeks. At the end of 5 weeks following tumor cell inoculation, the mice were imaged using Xenogen imaging system. The mice having tumors with an average flux ranging between 3.71×10^6 and 3.87×10^7 photons/sec were pooled together and randomized into various treatment groups. Compound 1 was formulated in 0.5% CMC and 0.25% Tween 80 in water (as a suspension). The animals were orally administered vehicle (CMC-Tween) or Compound 1 once daily (QD) for up to 6 weeks. Doses of 10 mg/kg and 20 mg/kg Compound 1 were used. The positive control Temozolomide (TMZ) (10 mg/kg, QD) was administered via intra peritoneal (IP) route. Temozolomide was formulated in 5% N-methylpyrrolidone, 45% PEG400 and 50% saline. The animals were monitored for tumor growth by imaging for bioluminescence once a week using Xenogen imaging system. Statistical analysis was performed using a one-way analysis of variance (ANOVA) followed by Dunnett's post-hoc comparison with the vehicle-treated control groups.

[3] = system: DLBCL; experiment: Phase 1/2 study Part B: tumor response, DLBCL; format: in vivo, human; conditions: 11 evaluable patients
Source text: In Part B, subjects may start Compound 1 at the MTD and/or a lower dose level based on safety, PK and PD data from Part A. Approximately 150 subjects will be treated and evaluated for safety and preliminary antitumor activity after every two cycles of therapy. Tumor types include non-small cell lung cancer (NSCLC), glioblastoma multiforme (GBM), hepatocellular carcinoma (HCC), gastrointestinal neuroendocrine tumor of non-pancreatic origin (NET), diffuse large B-cell lymphoma (DLBCL), multiple myeloma (MM), and hormone receptor positive breast cancer (HRPBC). Up to 20 subjects will be enrolled in each tumor type.
Subjects will be evaluated for efficacy every 2 cycles through cycle 6 and every 3 cycles thereafter. The primary efficacy variable is response. Tumor assessments, including imaging (CT, MRI and/or PET) of the chest and abdomen and other sites as appropriate, will be performed during Screening. Subjects with brain lesions will also have brain scans at Screening and during follow-up tumor assessments. After Screening, tumor assessments (for all tumors except multiple myeloma) will be performed on completion of Cycles 2, 4 and 6 (i.e., on Cycles 3, 5 and 7/Day 1±7 days) and then every 3 months thereafter (e.g., Cycle 10 and 13/Day 1±7 days). Tumor assessment (for multiple myeloma and only NHL/DLBCL with known or suspected marrow involvement) (bone marrow aspiration and biopsy, with PD biomarker analysis, cytogenetic analysis if abnormally present at Screening) will be performed on completion of Cycles 4, 8, 12 and 16 only (i.e., on Cycles 5, 9, 13 and 17/Day 1±7 days). Cytogenetics need not be repeated if normal at Screening. […] Subjects will be evaluated for tumor response on completion of Cycle 2, 4, 6, and so on. […]
For Part B, efficacy variables to be analyzed include tumor response at the end of treatment, the proportion of subject alive and progression-free, and duration of response. […]

CO[C@H]1CC[C@H](N2C(=O)CNc3ncc(-c4ccc(C(C)(C)O)nc4)nc32)CC1 [Compound 1, 7-(6-(2-hydroxypropan-2-yl)pyridin-3-yl)-1-((1r,4r)-4-methoxycyclohexyl)-3,4-dihydropyrazino-[2,3-b]pyrazin-2(1H)-one]
stable under the storage conditions [1]: at least 1 month
intracranial tumor growth [2]: significantly inhibited
best target lesions responses (reduction) [3]: up to 75%
patients meeting Partial Response (RECIST 1.1) [3]: 2 patients
patients meeting at least Stable Disease (RECIST 1.1) [3]: 1 patient
